Experimental data published in patent US20230121721A1, “MONOACYLGLYCEROL LIPASE INHIBITORS” (STICHTING HET NEDERLANDS KANKER INSTITUUT - ANTONI VAN …, priority 2020, published 2023).

Target: T1, hMAGL (MAGL-overexpressing membrane preparations from transiently transfected HEK293T cells) (Homo sapiens, UniProt Q99685)
T1 construct: expressed in transfected cells; host or cells: HEK293T (transient transfection), membrane preparations
T1 sequence (Q99685 1-303): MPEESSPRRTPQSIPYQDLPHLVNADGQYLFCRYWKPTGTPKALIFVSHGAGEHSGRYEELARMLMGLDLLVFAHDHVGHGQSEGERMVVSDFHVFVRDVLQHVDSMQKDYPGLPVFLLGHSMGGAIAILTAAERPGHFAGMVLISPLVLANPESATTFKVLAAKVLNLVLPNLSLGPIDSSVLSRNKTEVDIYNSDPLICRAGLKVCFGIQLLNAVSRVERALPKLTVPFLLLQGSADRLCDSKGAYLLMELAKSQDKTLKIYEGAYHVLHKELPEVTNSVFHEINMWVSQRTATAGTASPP
Experiment: MAGL activity assay (2-AG hydrolysis, glycerol coupled to Amplifu Red fluorescence)
Type: biochemical
Conditions: hMAGL-overexpressing HEK293T membranes, 25 μM 2-AG substrate, 20 min. inhibitor incubation
Excerpt: The MAGL activity assay is based on the production of glycerol from 2-arachidonoylglycerol (2-AG) hydrolysis by MAGL-overexpressing membrane preparations from transiently transfected HEK293T cells, as previously reported in van der Wel T et al., “A natural substrate-based fluorescence assay for inhibitor screening on diacylglycerol lipase”, J Lipid Res., 2015, 56(4), 927-35. The produced glycerol is coupled to the oxidation of commercially available Amplifu™ Red (Sigma-Aldrich Chemie N.V., Zwijndrecht, Netherlands) via a multi-enzyme cascade, resulting in a fluorescent signal from the dye resorufin.
Standard assays were performed in HEMNB buffer (50 mM HEPES pH 7.4, 1 mM EDTA, 5 mM MgCl2, 100 mM NaCl, 0.5% (w/v) BSA) in black, flat bottom 96-wells plates. Final protein concentration of membrane preparations from overexpressing hMAGL HEK293T cells was 1.5 μg/mL (0.3 μg per well). Inhibitors were added from 40× concentrated DMSO stocks. […] Final assay concentrations: 0.2 U/mL GK, GPO and HRP, 0.125 mM ATP, 10 μM Amplifu™ Red, 25 μM 2-AG, 5% DMSO, 0.5% ACN in a total volume of 200 μL.
For IC50 determination, the MAGL-overexpressing membranes were incubated with different inhibitor concentrations. Slopes of corrected fluorescence in time were determined in the linear interval of t=10 to t=35 min and then scaled to the corrected positive control of hMAGL-overexpressing membranes treated with vehicle (DMSO) as a 100% activity reference point. The data was exported to GraphPad Prism 5.0 and analysed in a non-linear dose-response analysis with variable slope.

Row | IC50 [nM] | SMILES
1 | > 10000 | CCOC(=O)CSc1ccc(C(=O)N2CCN(c3cccc(Cl)c3)[C@H](C)[C@H]2C)cc1Cl (racemic) [Example 52, (±) Ethyl 2-((2-chloro-4-(4-(3-chlorophenyl)-trans-2,3-dimethylpiperazine-1-carbonyl)phenyl)thio)acetate]
2 | 339 | CCOC(=O)CS(=O)(=O)c1ccc(C(=O)N2CCN(c3cccc(Cl)c3)[C@H](C)[C@H]2C)cc1Cl (racemic) [Example 53, (±) Ethyl 2-((2-chloro-4-(4-(3-chlorophenyl)-trans-2,3-dimethylpiperazine-1-carbonyl)phenyl)sulfonyl)acetate]
3 | 1150 | CCOC(=O)CC(=O)c1ccc(C(=O)N2CCN(c3cccc(Cl)c3)[C@H](C)[C@H]2C)cc1Cl (racemic) [Example 55, (±) Ethyl 3-(2-chloro-4-(4-(3-chlorophenyl)-trans-2,3-dimethylpiperazine-1-carbonyl)phenyl)-3-oxopropanoate]
4 | 3.89 | CCC(C)OC(=O)C[S+]([O-])c1ccc(C(=O)N2CCN(c3cccc(Cl)c3)[C@H](C)[C@H]2C)cc1Cl (mixture of isomers) [Example 57, (±) sec-Butyl 2-((2-chloro-4-(4-(3-chlorophenyl)-trans-2,3-dimethylpiperazine-1-carbonyl)phenyl)sulfinyl)acetate]
5 | 4.17 | C[C@@H]1[C@@H](C)N(c2cccc(Cl)c2)CCN1C(=O)c1ccc([S+]([O-])CC(=O)OC2CCC2)c(Cl)c1 (mixture of isomers) [Example 58, (±) Cyclobutyl 2-((2-chloro-4-(4-(3-chlorophenyl)-trans-2,3-dimethylpiperazine-1-carbonyl)phenyl)sulfinyl)acetate]
6 | 2.95 | C[C@@H]1[C@@H](C)N(c2cccc(Cl)c2)CCN1C(=O)c1ccc([S+]([O-])CC(=O)OC2CCCCC2)c(Cl)c1 (mixture of isomers) [Example 60, (±) Cyclohexyl 2-((2-chloro-4-(4-(3-chlorophenyl)-trans-2,3-dimethylpiperazine-1-carbonyl)phenyl)sulfinyl)acetate]
7 | 9.12 | COCCOC(=O)C[S+]([O-])c1ccc(C(=O)N2CCN(c3cccc(Cl)c3)[C@@H](C)[C@@H]2C)cc1Cl (mixture of isomers) [Example 65, (±) 2-Methoxyethyl 2-((2-chloro-4-(4-(3-chlorophenyl)-trans-2,3-dimethylpiperazine-1-carbonyl)phenyl)sulfinyl)acetate]
8 | 46.8 | COCC(C)OC(=O)C[S+]([O-])c1ccc(C(=O)N2CCN(c3cccc(Cl)c3)[C@@H](C)[C@@H]2C)cc1Cl (mixture of isomers) [Example 66, (±) 1-Methoxypropan-2-yl 2-((2-chloro-4-(4-(3-chlorophenyl)-trans-2,3-dimethylpiperazine-1-carbonyl)phenyl)sulfinyl)acetate]
9 | 12.9 | C[C@H]1[C@H](C)N(c2cccc(Cl)c2)CCN1C(=O)c1ccc([S+]([O-])CC(=O)OC2CCOCC2)c(Cl)c1 (mixture of isomers) [Example 67, (±) tetraHydro-2H-pyran-4-yl 2-((2-chloro-4-(4-(3-chlorophenyl)-trans-2,3-dimethylpiperazine-1-carbonyl)phenyl)sulfinyl)acetate]
10 | 20.9 | CCOC(=O)C[S+]([O-])c1ccc(C(=O)N2CCN(c3cncc(Cl)c3)[C@@H](C)[C@@H]2C)cc1Cl (mixture of isomers) [Example 68, (±) Ethyl 2-((2-chloro-4-(-4-(5-chloropyridin-3-yl)-trans-2,3-dimethylpiperazine-1-carbonyl)phenyl)sulfinyl)acetate]
11 | 87.1 | CCOC(=O)C[S+]([O-])c1ccc(C(=O)N2CCN(c3ccnc(Cl)c3)[C@@H](C)[C@@H]2C)cc1Cl (mixture of isomers) [Example 69, (±) Ethyl 2-((2-chloro-4-(-4-(2-chloropyridin-4-yl)-trans-2,3-dimethylpiperazine-1-carbonyl)phenyl)sulfinyl) acetate]
12 | 9.12 | CCOC(=O)C[S+]([O-])c1ccc(C(=O)N2CCN(c3cccc(Cl)n3)[C@@H](C)[C@@H]2C)cc1Cl (mixture of isomers) [Example 70, (±) Ethyl 2-((2-chloro-4-(-4-(6-chloropyridin-2-yl)-trans-2,3-dimethylpiperazine-1-carbonyl)phenyl)sulfinyl)acetate]
13 | 8.71 | CCOC(=O)C[S+]([O-])c1ccc(C(=O)N2CCN(c3cc(Cl)ccn3)[C@@H](C)[C@@H]2C)cc1Cl (mixture of isomers) [Example 71, (±) Ethyl 2-((2-chloro-4-(-4-(4-chloropyridin-2-yl)-trans-2,3-dimethylpiperazine-1-carbonyl)phenyl)sulfinyl)acetate]
14 | 20.9 | C[C@H]1[C@H](C)N(c2cccc(Cl)c2)CCN1C(=O)c1ccc(SCC(=O)C(F)(F)F)c(Cl)c1 (racemic) [Example 72, (±) 3-((2-Chloro-4-(4-(3-chlorophenyl)-trans-2,3-dimethylpiperazine-1-carbonyl)phenyl)thio)-1,1,1-trifluoropropan-2-one]
15 | 7.41 | C[C@H]1[C@H](C)N(c2cccc(Cl)c2)CCN1C(=O)c1ccc([S+]([O-])CC(=O)C(F)(F)F)c(Cl)c1 (mixture of isomers) [Example 73, (±) 3-((2-Chloro-4-(4-(3-chlorophenyl)-trans-2,3-dimethylpiperazine-1-carbonyl)phenyl)sulfinyl)-1,1,1-trifluoropropan-2-one]
16 | 204 | C[C@H]1[C@H](C)N(c2cccc(Cl)c2)CCN1C(=O)c1ccc([S+]([O-])CC(=O)c2ncco2)c(Cl)c1 (mixture of isomers) [Example 74, (±) 2-((2-Chloro-4-(4-(3-chlorophenyl)-trans-2,3-dimethylpiperazine-1-carbonyl)phenyl)sulfinyl)-1-(oxazol-2-yl)ethan-1-one]
17 | 234 | C[C@H]1[C@H](C)N(c2cccc(Cl)c2)CCN1C(=O)c1ccc([S+]([O-])CC(=O)c2nccs2)c(Cl)c1 (mixture of isomers) [Example 75, (±) 2-((2-Chloro-4-(4-(3-chlorophenyl)-trans-2,3-dimethylpiperazine-1-carbonyl)phenyl)sulfinyl)-1-(thiazol-2-yl)ethan-1-one]
18 | 380 | Cc1cnc(C(=O)C[S+]([O-])c2ccc(C(=O)N3CCN(c4cccc(Cl)c4)[C@@H](C)[C@@H]3C)cc2Cl)o1 (mixture of isomers) [Example 76, (±) 2-((2-Chloro-4-(4-(3-chlorophenyl)-trans-2,3-dimethylpiperazine-1-carbonyl)phenyl)sulfinyl)-1-(5-methyloxazol-2-yl)ethan-1-one]
19 | 2.34 | C[C@H]1[C@H](C)N(c2cccc(Cl)c2)CCN1C(=O)c1ccc([S+]([O-])CC(=O)C(F)F)c(Cl)c1 (mixture of isomers) [Example 77, (±) 3-((2-Chloro-4-(4-(3-chlorophenyl)-trans-2,3-dimethylpiperazine-1-carbonyl)phenyl)sulfinyl)-1,1-difluoropropan-2-one]
20 | 1.48 | C[C@H]1[C@H](C)N(c2cccc(Cl)c2)CCN1C(=O)c1ccc([S+]([O-])CC(=O)C(C)(F)F)c(Cl)c1 (mixture of isomers) [Example 78, (±) 1-((2-Chloro-4-(4-(3-chlorophenyl)-trans-2,3-dimethylpiperazine-1-carbonyl)phenyl)sulfinyl)-3,3-difluorobutan-2-one]
21 | 87.1 | C[C@H]1[C@H](C)N(c2cccc(Cl)c2)CCN1C(=O)c1ccc([S+]([O-])CC(=O)C(F)(F)c2ccccc2)c(Cl)c1 (mixture of isomers) [Example 80, (±) 3-((2-Chloro-4-(4-(3-chlorophenyl)-trans-2,3-dimethylpiperazine-1-carbonyl)phenyl)sulfinyl)-1,1-difluoro-1-phenylpropan-2-one]
22 | 0.851 | C[C@H]1[C@H](C)N(c2cccc(Cl)n2)CCN1C(=O)c1ccc([S+]([O-])CC(=O)C(C)(F)F)c(Cl)c1 (mixture of isomers) [Example 81, (±) 1-((2-chloro-4-(4-(6-chloropyridin-2-yl)-trans-2,3-dimethylpiperazine-1-carbonyl)phenyl)sulfinyl)-3,3-difluorobutan-2-one]
23 | 0.123 | CCC(F)(F)C(=O)C[S+]([O-])c1ccc(C(=O)N2CCN(c3cccc(Cl)n3)[C@@H](C)[C@@H]2C)cc1Cl (mixture of isomers) [Example 82, (±) 1-((2-Chloro-4-(4-(6-chloropyridin-2-yl)-trans-2,3-dimethylpiperazine-1-carbonyl)phenyl)sulfinyl)-3,3-difluoropentan-2-one]

Row | SMILES | IC50 [nM]
24 | CCOC(=O)C[S+]([O-])c1ccc(CN2CCN(c3cccc(Cl)c3)[C@H](C)[C@H]2C)cc1Cl (mixture of isomers) [Example 54, (±) Ethyl 2-((2-chloro-4-((4-(3-chlorophenyl)-trans-2,3-dimethylpiperazin-1-yl)methyl)phenyl)sulfinyl)acetate] | 6.17
